Data taken from patent publication US4778802A, “Heterocyclic compounds” (John Wyeth & Brother, Ltd., priority 1985, dated 1988).
Like-named read-outs stand apart in the source and are kept apart here.

Experiments:
[1] = system: pCA-induced 5-HT syndrome; test: Inhibition of p-chloroamphetamine (pCA)-induced stereotypy in rats, p.o.; assay type: in vivo, male Sprague-Dawley rats; details: for inhibition of syndrome at 50 mg/kg: 50 mg/kg p.o.; for ED50: Rattus norvegicus, po; for antagonism of pCA-induced stereotypy (in words): 5 dose levels
Procedure: Representative compounds of this invention were tested for their ability to inhibit pCA induced syndrome in rats by the standard procedure described below:
(§1) Inhibition of p-chloroamphetamine (pCA)-induced stereotypy
Vehicle or drug (5 dose levels) were administered p.o. to six groups of 6-8 male Sprague-Dawley rats (300-400 g) followed, 90 minutes later, by pCA (10 mg/kg i.p.). The animals were then placed in individual observation chambers and, 30 minutes after pCA administration, the intensity of the pCA-induced 5-HT syndrome was assessed according to the following scoring system:
head-weaving 0, 1, 2 or 3 according to
fore-paw treading severity
(§2) tremor 0 (absent) or 1 (present)
Therefore, the maximum score for each animal was 10.
(§3) The inhibition of pCA induced stereotypy is calculated for each dose level as follows: [formula] where
C=control group total score at 30 minutes post pCA.
T=group total score of treated group at 30 minutes post pCA.
For each dose a % effect is calculated.
The results obtained from the tests using 5 different dose levels of the drug allow the ED50 value (i.e. the dose required to produce 50% inhibition of pCA induced stereotypy) to be calculated.
The test was carried out using the free bases except for compound C which was tested in the form if its maleate salt and the result corrected for amount of active material.

[2] = system: 5-hydroxy-L-tryptophan induced behavioural syndrome; test: Potentiation of 5-hydroxytryptophan (5-HTP)-induced behaviour in rats; assay type: in vivo, male Sprague-Dawley rats; details: Rattus norvegicus, po
Procedure: The compounds B and C were also tested for their ability to potentiate 5-hydroxy-L-tryptophan induced behavioural syndrome in rats. The test procedure is described below (updated from that described in UK No. 2073179B).
Potentiation of 5-hydroxytryptophan (5-HTP)-induced behaviour
Groups of 10 male Sprague-Dawley rats (310-360 g) were dosed p.o. with vehicle or drugs. Ninety minutes later 5-HTP (50 mg/kg s.c.) was administered and the animals placed in individual observation chambers (peripheral decarboxylation was prevented by 25 mg/kg i.p. carbidopa administered 60 minutes before 5-HTP). Head shakes were counted over the period 30-45 minutes after 5-HTP and the intensity of the 5-HT syndrome was scored immediately afterwards using the system described for the pCA procedure above. Percentage potentiation of syndrome was calculated as follows: […]
0, 1, 2 or 3 according to severity
as §2
Percentage potentiation was calculated from the following: [formula]

[3] = system: 5-HT uptake into rat brain synaptosomes; test: Inhibition of 5-HT uptake into rat brain synaptosomes; assay type: biochemical, male Sprague Dawley rats; details: for IC50: 37°, 4 minutes; for Selectivity Ratio (5-HT uptake relative to NA uptake): from IC50 NA and IC50 5-HT
Procedure: (§4) In vitro tests have shown that compounds of formula I also have a marked degree of selectivity in inhibiting uptake of 5-HT into rat brain synaptosomes relative to uptake of ^3 H noradrenaline. The test procedure involved obtaining synaptosomal preparations from male Sprague Dawley rats according to the method of Grey and Whittaker* as modified by Wood & Wyllie.** Aliquots of the synaptosomal preparation were then incubated with tritrated noradrenaline (NA) or 5-HT at a temperature of 37° for 4 minutes. The active synaptosomal accumulation of labelled substrate was measured by filtration and scintillation counting. The effect at a range of concentrations of test compound enabled IC50 values and selectivity ratios to be calculated.

[4] = system: 3H noradrenaline (NA) uptake into rat brain synaptosomes; test: Inhibition of 3H noradrenaline (NA) uptake into rat brain synaptosomes; assay type: biochemical, male Sprague Dawley rats; details: 37°, 4 minutes
Procedure: as §4

pCA-induced stereotypy = test: Duration of action: inhibition of pCA-induced stereotypy at various times after dosing; assay type: in vivo, male Sprague-Dawley rats; details: 6 mg/kg p.o.
Procedure: as §1
The animals were then placed in individual observation chambers and, 30 minutes after pCA administration, the intensity of the pCA-induced 5-HT syndrome was assessed according to the following scoring system:
as §3

pCA syndrome = test: Related duration test on pCA syndrome (with modified scoring); assay type: in vivo; details: 15 mg/kg
[5] = rats, p.o., 90 min before pCA 10 mg/kg i.p., scored 30 min after pCA, free bases except C (maleate, corrected for active material), read-out: ED50 (dose required to produce 50% inhibition of pCA induced stereotypy)
[6] = rats, p.o., 90 min before 5-HTP 50 mg/kg s.c., carbidopa 25 mg/kg i.p., value of C corrected for amount of active ingredient, read-out: ED50 (potentiation of 5-HTP-induced behavioural syndrome)

O=C(NC(=O)c1ccc2ncccc2c1)NC1CCN(Cc2ccc3ccccc3c2)CC1 [A, N-[[[1-(2-naphthalenylmethyl)-4-piperidinyl]amino]-carbonyl]-6-quinolinecarboxamide]
inhibition of syndrome at 50 mg/kg ([1]; rats): 99%
ED50 [1, 5]: 2.7 mg/kg
antagonism of pCA-induced stereotypy (in words) ([1]; rats, p.o.): antagonised pCA-induced stereotypy in a dose-dependent manner

O=C(NC(=O)c1ccc2ncccc2c1)NC1CCN(Cc2ccc3ncccc3c2)CC1 [B, N-[[[1-(quinol-6-ylmethyl)-4-piperidinyl]amino]-carbonyl]-6-quinolinecarboxamide]
inhibition of syndrome at 50 mg/kg ([1]; rats): 99%
ED50 [1, 5]: 6.5 mg/kg
antagonism of pCA-induced stereotypy (in words) ([1]; rats, p.o.): antagonised pCA-induced stereotypy in a dose-dependent manner
ED50 [2, 6]: 7.3 mg/kg
IC50 [3]: 0.043 µM
Selectivity Ratio (5-HT uptake relative to NA uptake) [3]: 207
IC50 [4]: 8.9 µM

O=C(NC(=O)c1ccc2ncccc2c1)NC1CCN(Cc2ccc3cc(F)ccc3c2)CC1 [C, N-[[[1-(6-fluoro-2-naphthalenylmethyl)-4-piperidinyl]-amino]-carbonyl]-6-quinolinecarboxamide]
inhibition of syndrome at 50 mg/kg ([1]; rats): 99%
ED50 [1, 5]: 2.1 mg/kg
antagonism of pCA-induced stereotypy (in words) ([1]; rats, p.o.): antagonised pCA-induced stereotypy in a dose-dependent manner
% Inhibition of pCA induced stereotypy, time 2 (pCA-induced stereotypy; time 2 after administration of 5-HT inhibitor (time unit not given)): ca. 79%
% Inhibition of pCA induced stereotypy, time 6 (pCA-induced stereotypy; time 6 after administration of 5-HT inhibitor (time unit not given)): 82.8%
% Inhibition of pCA induced stereotypy, time 12 (pCA-induced stereotypy; time 12 after administration of 5-HT inhibitor (time unit not given)): 56.9%
% Inhibition of pCA induced stereotypy, time 16 (pCA-induced stereotypy; time 16 after administration of 5-HT inhibitor (time unit not given)): 57.6%
ED50 [2, 6]: 2.4 mg/kg
IC50 [3]: 0.082 µM
Selectivity Ratio (5-HT uptake relative to NA uptake) [3]: 450
IC50 [4]: 37 µM

O=C(NC(=O)c1ccccc1)NC1CCN(Cc2ccc3ccccc3c2)CC1 [panuramine, 1-benzoyl-3-[1-(naphth-2-ylmethyl)piperid-4-yl]urea, reference compound]
inhibition of syndrome at 50 mg/kg ([1]; rats): ca. 78%
ED50 ([1]; same test, monohydrochloride corrected for amount of active ingredient, read-out: ED50 (inhibition of pCA induced stereotypy), panuramine): 16.2 mg/kg
duration of action (in words) (pCA syndrome): much shorter duration of action
inhibition after 16 hours (pCA syndrome; 16 hours): 12.2%
inhibition after two hours (pCA syndrome; two hours): 65.1%
ED50 ([2]; same test, corrected for amount of base, read-out: ED50 (potentiation of 5-HTP-induced behavioural syndrome), panuramine HCl salt): 27.4 mg/kg
IC50 [3]: 0.063 µM
Selectivity Ratio (5-HT uptake relative to NA uptake) [3]: 135
IC50 [4]: 8.5 µM
